# Data reported in paper PMC9166630, “SAR Probing of KX2-391 Provided Analogues With Juxtaposed Activity Profile Against Major Oncogenic Kinases” (Frontiers in Oncology, 2022).
# Key:
# HCT116 cell line = experiment: MTT anti-proliferative assay, HCT116; assay type: cell-based, human; conditions: Homo sapiens, HCT-116, 72 h, maximum tested concentration 50 µM, read-out: IC50 ± SEM, HCT116
# Description: The test compounds were evaluated for anti-proliferative activity using the MTT viability assay against HCT116 cell line. Cells were seeded in triplicate in 96-well plates at a density of 10x 10^3 cells/mL in a total volume of 200 µL per well. 0.1% of DMSO was used as a vehicle control. Each well was treated with 2 µL test compounds, which had been pre-prepared as stock solutions in […] to furnish the concentration range of study, 0.1 µM to 50 µM, and re-incubated for a further 72 h at 37°C in a humidified atmosphere containing 5% CO2. The culture medium was then removed, and the cells were washed with 100 µL PBS and 100 µL MTT was added, to reach a final concentration of 1 mg/mL MTT. Cells were incubated for 3 h in darkness at 37°C. After that, MTT solution was removed and MTT was solubilized by adding […] DMSO. The cells were maintained at room temperature in darkness for 20 min to ensure thorough color diffusion before reading the absorbance using a microplate reader at 570 nm. All experiments were conducted in triplicates. Results were expressed as percentage viability relative to vehicle control (100%). Dose response curves were plotted and IC50 values (concentration of drug resulting in 50% reduction in cell survival) were obtained using the commercial software package Prism (GraphPad Software, Inc., La Jolla, CA, USA).
# [1] = Stability in mouse plasma; assay type: in vitro ADME; conditions: CD-1, mouse, pH 7.4, 37°C, read-out: Mouse Plasma Stability t1/2
# Description: The assay was conducted at 37°C in triplicate. Test compounds or procaine (positive control) were tested at a final concentration of 1 µM in either 2.5% DMSO/CD-1 mouse plasma (Innovative Research, Novi, MI; sodium heparin added as anticoagulant; pH adjusted to 7.4 with 2N HCl on day of use) or 2.5% DMSO/PBS (pH 7.4: 136.9 mM NaCl, 2.68 mM KCl, 8.1 mM Na2HPO4, 1.47 mM KH2PO4, 0.9 mM CaCl2, 0.49 mM MgCl2). At seven time points, reaction mixture aliquots were transferred to 96-shallow well stop plates on ice containing acetonitrile with 0.1 µM propafenone. Samples were analyzed by LC/MS/MS on a Waters Xevo TQ instrument as described above using positive electrospray ionization. Assay acceptance criteria was 20% for all standards and 25% for the LLOQ. GraphPad® Prism v. 5.04 was used for nonlinear fitting of data to generate t1/2 values.
# [2] = system: MCF7 (breast) cancer cells; experiment: SRB cytotoxicity assay, MCF7; assay type: cell-based, human; conditions: Homo sapiens, MCF7, 72 h, maximum tested concentration 50 µM, read-out: IC50 ± SEM, MCF7
# Description: MCF7 (breast) or N87 (stomach) cancer cells were grown in Roswell Park Memorial Institute-1640 (RPMI-1640) medium (Thermo Fisher Scientific, Inc; Waltham, MA, USA), supplemented with 10% heat inactivated fetal bovine serum (FBS), 50 units/mL of penicillin and […] of streptomycin and maintained at 37°C in a humidified atmosphere containing 5% CO2. The cells were maintained as “monolayer culture” by serial subculturing.
# Cytotoxicity was determined using Sulforhodamine B (SRB) method as previously described by Skehan et al. ([66]). Exponentially growing MCF7 and N87 cells were collected using 0.25% Trypsin-EDTA and were then seeded in 96-well plates at a density of 1000-2000 cells/well in 10% FBS and penicillin/streptomycin supplemented RPMI-1640 medium. After 24 h, cells were treated with different concentrations of test compounds and incubated for 72 h at 37°C in a humidified atmosphere containing 5% CO2. Next, the cells were fixed by adding trichloroacetic acid (TCA, 10% final conc. in wells) directly to the wells and incubated for 1 h at 4°C, then cells were washed with distilled water 5 times to remove excess TCA, media, serum proteins, and metabolites, followed by air drying. After that, the fixed cells were stained with 0.4% SRB dissolved in 1% acetic acid for 10 min at room temperature, and excess stain was removed by quickly rinsing with 1% acetic acid. The residual acetic acid was removed completely by air drying the plates for 24 h, and the dye was solubilized with Tris buffer (pH= 7.4, 10 mM) for 5 min on a shaker at 1600 rpm. The optical density (OD) of each well was measured spectrophotometrically at 564 nm with an ELISA microplate reader (ChroMate-4300, FL, USA). The IC50 values (concentration of drug resulting in 50% reduction in cell survival) were calculated according to the equation for Boltzman sigmoidal concentration–response curve using the nonlinear regression fitting models (Graph Pad, Prism Version 5).
# CYP3A4 = target: T1, CYP3A4 (Homo sapiens, UniProt P08684); experiment: Inhibition assay of human CYP450 enzymes, 3A4; assay type: in vitro ADME; conditions: for IC50: testosterone substrate; for no inhibition of CYP3A4 at concentrations up to: the values are: IC50
# T1 construct: purchased Fisher Scientific; host or cells: insect cells (supersomes)
# Description: The two compounds 4e and 4n were assessed for their ability to inhibit the three major human CYP450 enzymes, 3A4, 2D6 and 2C9. Assays were run in triplicate. Expressed enzymes in insect supersomes (Fisher Scientific, Waltham, MA) were used to minimize non-specific binding and membrane partitioning issues ([68]). The 3A4 assay uses testosterone as a substrate and analysis was performed by LC/MS/MS on a Waters Xevo TQ instrument as described above using positive electrospray ionization. Assay acceptance criteria was 20% for all standards and 25% for the LLOQ. The 2D6 and 2C9 assays use fluorescent substrates (3-[2-(N,N-diethylamino)ethyl]-7-methoxy-4-methylcoumarin for 2D6; 7-methoxy-4-(trifluoromethyl)coumarin for 2C9) and were analyzed on an Envision plate reader. GraphPad® Prism v 5.04 was used for nonlinear fitting of data to generate IC50 values.
# T1 sequence (P08684 whole entry): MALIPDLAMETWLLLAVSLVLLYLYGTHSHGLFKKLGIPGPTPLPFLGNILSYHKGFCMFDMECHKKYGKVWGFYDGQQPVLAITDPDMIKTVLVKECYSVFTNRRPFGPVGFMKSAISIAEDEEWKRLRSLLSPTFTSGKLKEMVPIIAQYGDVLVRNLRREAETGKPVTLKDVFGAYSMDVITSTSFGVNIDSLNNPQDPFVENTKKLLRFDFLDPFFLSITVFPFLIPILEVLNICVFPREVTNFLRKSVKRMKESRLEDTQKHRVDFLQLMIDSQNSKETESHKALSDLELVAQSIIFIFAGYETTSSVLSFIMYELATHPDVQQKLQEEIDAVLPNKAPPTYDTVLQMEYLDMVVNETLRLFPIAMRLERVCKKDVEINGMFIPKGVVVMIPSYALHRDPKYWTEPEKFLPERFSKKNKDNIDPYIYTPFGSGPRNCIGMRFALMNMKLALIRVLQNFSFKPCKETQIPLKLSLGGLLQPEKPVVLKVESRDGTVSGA
SMILES,IC50 (HCT116 cell line) [µM],half-life at 1 µM [1] [h],IC50 [2] [µM],IC50 (CYP3A4) [µM],no inhibition of CYP3A4 at concentrations up to (CYP3A4) [µM]
"O=C(Cc1ccc(NC(=O)c2cccc(Cl)c2)cc1)NCc1ccccc1 [Compound 4e, N-(4-(2-(benzylamino)-2-oxoethyl)phenyl)-3-chlorobenzamide]",16.8 ± 2.69,> 5,7.41 ± 2.8,> 10,> 10
"O=C(Cc1ccc(NC(=O)c2cccc(Cl)n2)cc1)NCc1ccccc1 [Compound 4n, N-(4-(2-(benzylamino)-2-oxoethyl)phenyl)-6-chloropicolinamide]",10.8,2.97,0.25,> 10,> 10
